Laboratory results: patent US5945406A, “Therapeutic compounds with pyrimidine base” (Oxford Glycosciences (UK) Ltd., priority 1995, dated 1999)

Legend:
nude mice [1] = details: mouse, in vivo, ip
Experimental: The toxicity of Compound 1 (as described in Example 1) relative to 5-FU was determined in nude mice. Clinical grade 5-FU was used to provide a point of comparison with other toxicity studies in the literature. Animals were injected six times ip, in groups of 5, every 48 hours, with various doses of 5-FU or Compound 1.

[2] = system: human HepG2 flank tumours; assay: Efficacy in vivo: antitumour activity against subcutaneous human HepG2 flank tumours in nude mice (Example 20); set-up: species or system human tumour in nude mice; details: for Average tumour size (at sacrifice): control 10.4; for Average tumour size (at sacrifice) / Number of mice surviving after tumour innoculation, day 17 / Number of mice surviving after tumour innoculation, day 25 / Number of mice surviving after tumour innoculation, day 30 / appearance of treated animals / toxic side effects to the animals / rate of disease progression in treated animals / survival time of treated mice over untreated animals: 1300 mg/kg; for Number of mice surviving after tumour innoculation, day 0: day 0 after tumour inoculation; for Number of mice surviving after tumour innoculation, day 17: day 17 after tumour inoculation; for Number of mice surviving after tumour innoculation, day 25: day 25 after tumour inoculation; for Number of mice surviving after tumour innoculation, day 30: day 30 after tumour inoculation
Experimental: Nude mice were inoculated with subcutaneous human HepG2 flank tumours to determine the antitumour activity of Compound 1 in vivo. After allowing the tumours to develop for the first seven days, we attempted to prevent tumour progression by seven ip treatments every 48 hours at doses of 1300 mg/kg.

nude mice [3] = details: single bolus toxicity; NCI data base; cited from earlier work
[4] = seven ip treatments every 48 hours

Row | Compound | MAD (maximal achievable dose) (nude mice [1]) [mg/kg] | Average tumour size (at sacrifice) [2, 4] | Number of mice surviving after tumour innoculation, day 0 [2] [mice] | Number of mice surviving after tumour innoculation, day 17 [2, 4] [mice] | Number of mice surviving after tumour innoculation, day 25 [2, 4] [mice] | Number of mice surviving after tumour innoculation, day 30 [2, 4] [mice] | appearance of treated animals ([2]; in vivo, ip) | toxic side effects to the animals ([2]; in vivo, ip) | rate of disease progression in treated animals [2, 4] | survival time of treated mice over untreated animals [2, 4] | appearance of treated animals [2, 4] | LD10 (nude mice [3]) [mg/kg] | LD50 (nude mice [3]) [mg/kg] | toxic side effects to the animals [2, 4]
1 | 1-β-D-Galactopyranosyl-5-fluorouracil and 1-α-D-Galactopyranosyl-5-fluorouracil [Compound 1] | 1300 | 9.4 | 5 | 3 | 2 | 1 | very healthy appearance | without causing any toxic side effects | significantly slowed the rate by which the disease progressed | increased survival time | – | – | – | –
2 | 1-(β-L-2-Arabinopyranosyl)-5-fluorouracil and 1-(α-L-2-Arabinopyranosyl)-5-fluorouracil [Compound 6] | – | 6.2 | 5 | 4 | 2 | 2 | – | without causing any toxic side effects | significantly slowed the rate by which the disease progressed | increased survival time | very healthy appearance | – | – | –
3 | O=c1[nH]cc(F)c(=O)[nH]1 [Compound 5-FU, 5-Fluorouracil, reference compound] | – | 10.2 | 5 | 3 | 2 | 0 | – | – | – | – | – | 165 | 360 | –
4 | CC(=O)N[C@@H]1[C@@H](O)[C@@H](O)[C@@H](CO)O[C@H]1n1cc(F)c(=O)[nH]c1=O [Compound 10, 1-(β-D-2-Deoxy-2-N-acetylgalactopyranosyl)-5-fluorouracil] | – | 9 | 5 | 3 | 2 | 1 | – | – | significantly slowed the rate by which the disease progressed | increased survival time | very healthy appearance | – | – | without causing any toxic side effects
5 | 1-β-L-Galactopyranosyl-5-fluorouracil and 1 -α-L-Galactopyranosyl-5-fluorouracil [Compound 2] | – | 5.6 | 5 | 5 | 3 | 2 | very healthy appearance | without causing any toxic side effects | significantly slowed the rate by which the disease progressed | increased survival time | – | – | – | –
